Experimental data reported in patent publication US20080260774A1, “Alpha-galactosyl ceramide analogs and their use as immunotherapies” (priority 2007, published 2008).

Tested on: HA-specific peptide (9-mer)
Conditions: mouse, in vivo

Structure (SMILES): CCCCCCCCCCCCCCCCCCCCCCCCCC(=O)N[C@@H](CO[C@H]1O[C@H](CO)[C@H](O)[C@H](O)[C@H]1O)[C@H](O)[C@H](O)CCCCCCCCCCCCCC [C1, α-Galactosyl ceramide, reference compound]
- IFN-γ secreting cells: increased
